How the values were obtained:
Bovine GDH (bGDH) = molecular target: T1, Bovine GDH (bGDH) (Bos taurus, UniProt P00366); test: reductive amination reaction catalyzed by bovine GDH (NADH absorbance at 340 nm); format: biochemical; details: FIG. 1A
T1 construct: purchased Sigma Aldrich Chemical Company (St. Louis, Mo.)
Experimental: In this Example, the effects of epigallocatechin gallate (EGCG), epigallocatechin (EGC), epicatechin gallate (ECG), and epicatechin (EC) from Camellia sinensis on GDH activity were tested. Bovine GDH (bGDH) was used in this Example, which was obtained as an aqueous (NH4)2SO4 suspension from Sigma Aldrich Chemical Company (St. Louis, Mo.).
First, aliquots of GDH were extensively dialyzed against 0.1M sodium phosphate buffer, pH 7.0, which contained 1 mM ethylenediaminetetraacetic acid (EDTA). The enzyme concentrations were adjusted to 1 mg/ml and the amount of enzyme added to the reaction mixture, for kinetic analysis, was adjusted to yield optimal steady state velocity measurements. All solutions were made immediately prior to use. Enzyme assays were performed by monitoring reduced coenzyme absorbance at 340 nm using a Shimadzu UV-1601 spectrophotometer. The reductive amination reactions were performed in 3 mL volumes at pH 7.0 in the presence of 0.1 mM nicotinamide adenine dinucleotide (NADH), 50 mM NH4Cl, and 5 mM 2-oxoglutarate. The rate of NADH oxidation was calculated using an extinction coefficient of 6.22 mM^−1 cm^−1.

rat islets [1] = test: BCH-stimulated insulin secretion and oxygen consumption in perifused islets; format: cell-based, Wistar rat; details: 20 μM
Experimental: In this Example, the effects of EGCG and EGC on LSIS were measured, while simultaneously monitoring respiration rates. More particularly, the effects of EGCG (20 μM) and EGC (20 μM) on BCH-stimulated insulin secretion were measured. First, 1000 adult male Wistar rat islets were isolated as described above and were cultured on a glass perfusion chamber in 10 mM glucose for 3 days. Next, the islets were perifused in an oxygen consumption measurement apparatus containing BCH, along with 0 μM EGCG and 0 μM EGC, 20 μM EGCG, or 20 μM EGC. The perifusion apparatus used in these Examples consisted of a peristaltic pump, a water bath (37° C.), a gas exchanger (artificial lung: media flowed through the thin-walled silastic tubing loosely coiled in a glass jar that contained 20% O2 and 5% CO2 balanced with N2), and fraction collector. All transfer lines were insulated. After the system was provided with 20 μM EGCG or 20 μM EGC, oxygen partial pressure was recorded every 10 seconds by phosphorescence lifetimes of an oxygen-sensitive porphyrin (palladium-mesotetra; 4-carboxyphenyl porphyrin dendrimer). The dye molecules were excited with pulses at 524 nm from a UV lead and emission was measured at 690 nm. The inflow oxygen tension was measured in the absence of islets in the chamber before and after each experiment. The perifusate was a Krebs buffer (pH 7.4) containing 2.2 mM Ca^2+, 1% bovine serum albumin equilibrated with 20% O2 and 5% CO2 balanced with N2. The flow rate was […] and samples were collected every 2 minutes for insulin measurements by radioimmunoassay. The results are summarized in FIG. 6, and are presented as means±S.E. for 1000 islets from 3 separate experiments for EGCG (and from 1 experiment for EGC). Due to the high density of data, S.E. is only shown in every 20 samples.

islets = test: [U-14C]-glutamine oxidation in islets; format: cell-based, rat
Experimental: In a first experiment, a batch of 100 islets were incubated with glucose-free Krebs-Ringer bicarbonate buffer, as described herein, containing 20 μM EGCG or 20 μM EGC and 2 mM glutamine for 60 minutes. The islets were then incubated in the presence of varying concentrations of BCH (shown in FIG. 7A) for 60 minutes, and for an additional 60 minutes in the presence of 2 mCi [U-^14C]-glutamine (NEN-Life Science Products, UK). Next, [U-^14C]-glutamine oxidation in the incubated islets was measured. A trap filter was placed in each tightly sealed glass tube of the perifusion apparatus to collect the ^14CO2 produced by the islets, and the amount of radioactivity was determined by liquid scintillation counting. The results are summarized in FIG. 7A, and are presented as means±S.E. from 4 separate experiments. […] The islets were then incubated in the presence of 10 mM BCH (or no BCH—to measure “baseline” glutamine oxidation levels) for 60 minutes. The islets were then incubated for an additional 60 minutes in the presence of 2 mCi [U-^14C]-glutamine (NEN-Life Science Products, UK). Next, [U-^14C]-glutamine oxidation in the incubated islets was measured, as described above.

rat islets [2] = test: glucose stimulated insulin secretion (GSIS), short run-down (50 minutes), glucose ramp; format: cell-based; details: 20 μM, FIGS. 8A and 8B
Experimental: In this Example, the effect of EGCG on glucose stimulated insulin secretion (GSIS) was examined. Isolated rat islets were cultured with 20 mM glucose (FIG. 8A) and 10 mM glucose (FIG. 8B) for 3 days, then perifused in the absence of glucose for 50 minutes and in the presence of 0 μM EGCG; 20 μM EGCG; or 20 μM EGC. Next, the islets were stimulated by a glucose ramp (0 to 25 mM, 0.5 mM/minute). Finally, the islets were exposed to 30 mM KCl. Insulin levels were measured every minute by radioimmunoassay. The results shown in FIG. 8A are presented as means±S.E. for 100 islets from 3 separate experiments (and means±S.E. for 100 islets from 1 experiment for FIG. 8B).

rat islets [3] = test: glucose stimulated insulin secretion in 120 minute run-down islets; format: cell-based
Experimental: Under brief “run-down” conditions used for the above GSIS analysis, where glucose was removed from the cells for only […], the levels of high-energy metabolites (i.e., GTP and ATP) have not been depleted and these effectively shut down GDH activity. This, in turn, eliminated any effect GDH might have on insulin secretion. Therefore, the effects of EGCG were also tested on […] that had been “run-down” for a longer period of time (120 minutes) prior to glucose stimulation (FIG. 11). Specifically, isolated rat islets were cultured with 10 mM glucose for 3 days and then perifused in the absence of glucose and in the presence of 0 or 20 μM EGCG (or 20 μM EGC) for “run-down” periods of 120 minutes prior to stimulation with a glucose ramp (0 to 25 mM, 0.5 mM/minute). Finally, islets were exposed to 30 mM KCl. The insert highlighted the insulin secretion from time=120 minutes to 140 minutes.

[4] = ethanol, DMSO, dimethyl formamide; cited from earlier work

T1 sequence (P00366 58-558): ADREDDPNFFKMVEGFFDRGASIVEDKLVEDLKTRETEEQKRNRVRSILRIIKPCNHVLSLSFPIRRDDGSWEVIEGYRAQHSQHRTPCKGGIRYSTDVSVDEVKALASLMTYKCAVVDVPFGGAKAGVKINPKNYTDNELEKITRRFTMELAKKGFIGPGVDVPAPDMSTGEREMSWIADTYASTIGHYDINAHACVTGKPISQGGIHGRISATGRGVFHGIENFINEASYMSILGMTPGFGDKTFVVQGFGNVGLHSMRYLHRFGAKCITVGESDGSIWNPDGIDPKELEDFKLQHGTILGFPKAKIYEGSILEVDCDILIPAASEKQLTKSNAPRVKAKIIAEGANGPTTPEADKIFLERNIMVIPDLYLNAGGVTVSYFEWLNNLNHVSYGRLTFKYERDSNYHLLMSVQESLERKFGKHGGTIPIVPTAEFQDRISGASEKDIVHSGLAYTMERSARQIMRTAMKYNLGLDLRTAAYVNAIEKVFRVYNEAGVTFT

Oc1cc(O)c2c(c1)O[C@H](c1cc(O)c(O)c(O)c1)[C@H](O)C2 [EGC, epigallocatechin, reference compound]
potent inhibitor of GDH activity (Bovine GDH (bGDH)): not | sensitization of the β-cells to BCH (rat islets [1]): slight sensitization | effect on LSIS (BCH-induced insulin secretion) (rat islets [1]; FIG. 6A): did not cause significant inhibition | effect on BCH-induced increase in respiration rates (rat islets [1]; FIG. 6B): nor did it have as strong of an effect on respiration as compared to EGCG | block of BCH stimulation of glutaminolysis (glutamine oxidation) (islets; 20 μM, 2 mM glutamine, FIG. 7A): not | effect on GSIS (rat islets [2]): neither EGC nor EGCG affected | potentiation of GSIS (rat islets [3]; 20 μM, 120 minute run-down, FIG. 11): not | effect on KCl-stimulated release of insulin (rat islets [3]; 30 mM KCl): neither EGCG or EGC affected | sensitization of the cells at low glucose concentrations (rat islets [3]; FIG. 11, inset): slightly sensitize

O=C(O[C@@H]1Cc2c(O)cc(O)cc2O[C@@H]1c1ccc(O)c(O)c1)c1cc(O)c(O)c(O)c1 [ECG, (2R,3R)-2-(3,4-Dihydroxyphenyl)-3,4-dihydro-1 (2H)-benzopyran-3,5,7-triol 3-(3,4,5-trihydroxybenzoate)]
potent inhibitor of GDH activity (Bovine GDH (bGDH)): potent inhibitors | soluble in organic solvents [4]: soluble

[N-]=[N+]=CC(=O)CC[C@H](N)C(=O)O [DON, 6-diazo-5-oxo-L-norleucine, reference compound]
effect on 10 mM BCH-stimulated glutamine oxidation (islets; 3 mM glutamine, FIG. 7B, 7C): blocks glutaminolysis to levels lower than the unstimulated β-cells at high concentrations

NC1(C(=O)O)CC2CCC1C2 (stereo not drawn) [BCH, beta-2-aminobicyclo[2.2.1]heptane-2-carboxylic acid, reference compound]
stimulation of glutamine oxidation (islets; 100 islets, 2 mM glutamine, FIG. 7A): dose-dependently stimulated
